Here are results for 24 compounds from patent US8034822B2, “Glucokinase activators” (Takeda San Diego, Inc., priority 2006, dated 2011).

Some results are limits rather than exact numbers.

The experiment concerns the target T1, glucokinase (GK) (Homo sapiens, UniProt P35557).
T1 construct: I.D. No. 1 corresponds to residues 12-465 of glucokinase; made in house; host or cells: E. coli DH10b-T1r, pFLAG-CTC plasmid
T1 sequence (P35557 with tags, fused parts or gaps isoform P35557-2): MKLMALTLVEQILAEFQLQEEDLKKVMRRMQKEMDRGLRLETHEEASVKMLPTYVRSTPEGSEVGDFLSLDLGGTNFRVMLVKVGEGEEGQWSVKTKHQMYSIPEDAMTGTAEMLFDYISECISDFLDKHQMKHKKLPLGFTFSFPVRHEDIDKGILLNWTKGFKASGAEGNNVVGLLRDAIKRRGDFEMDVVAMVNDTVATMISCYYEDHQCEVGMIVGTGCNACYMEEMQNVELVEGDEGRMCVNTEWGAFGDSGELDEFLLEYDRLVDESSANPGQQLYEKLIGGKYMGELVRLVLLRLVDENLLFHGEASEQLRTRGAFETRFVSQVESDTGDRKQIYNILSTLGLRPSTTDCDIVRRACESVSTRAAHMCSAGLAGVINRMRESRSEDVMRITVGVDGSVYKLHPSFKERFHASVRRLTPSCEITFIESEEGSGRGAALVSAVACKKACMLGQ
Kind of experiment: enzymatic glucokinase activity assay (ATP consumption, KinaseGlo luminescence). Format: biochemical. The following applies: Against GK; Kact = concentration giving 50% of maximal increase in GK activity; 5 μM ATP, 5 mM Glucose, 60 min room temperature; values given as bins; read-out: pKact. The text has this:
The activity of compounds as glucokinase activators may be assayed in vitro, in vivo or in a cell line. Provided below is an enzymatic glucokinase activity assay.
Purified glucokinase may be obtained as follows. DNA encoding residues 12-465 of the full-length sequence of the human enzyme may be amplified by PCR and cloned into the HindIII and EcoRI sites of pFLAG-CTC (Sigma). SEQ. I.D. No. 1 corresponds to residues 12-465 of glucokinase.
The expression of recombinant glucokinase protein may be carried out by transformation and growth of DH10b-T1r E. coli cells incorporating the (pFLAG-CTC) plasmid in LB media. Protein expression can be induced in this system by the addition of IPTG to the culture medium.
Recombinant protein may be isolated from cellular extracts by passage over Sepharose Q Fast Flow resin (Pharmacia). This partially purified GK extract may then be further purified by a second passage over Poros HQ10 (Applied Biosystems). The purity of GK may be determined on denaturing SDS-PAGE gel. Purified GK may then be concentrated to a final concentration of 20.0 mg/ml. After flash freezing in liquid nitrogen, the proteins can be stored at −78° C. in a buffer containing 25 mM TRIS-HCl pH 7.6, 50 mM NaCl, and 0.5 mM TCEP.
The activation properties of compounds for GK may be determined using a black 384-well-plate format under the following reaction conditions: 25 mM Hepes pH 7.2, 25 mM NaCl, 10 mM MgCl2, 0.01% Brij35, 1 mM DTT, 5 μM ATP, 5 mM Glucose 2% DMSO. The amount of ATP consumed may be determined quantitatively by addition of equal volume of luciferase reagent (luciferase+beetle luciferin—KinaseGlo Luminescent Kinase Assay kit from Promega). The luminescence intensity may be measured by using the Analyst HT from LJL Biosystems.
The assay reaction may be initiated as follows: 4 μl of substrate mixture (12.5 μM ATP and 12.5 mM Glucose) was added to each well of the plate, followed by the addition of 2 μl of activator (2 fold serial dilutions for 11 data points for each activator) containing 10% DMSO. 4 μL of 1.25 nM GK solution may be added to initiate the reaction. The reaction mixture may then be incubated at room temperature for 60 min, and quenched and developed by addition of 10 μL of luciferase reagent. Luminescence intensities of the resulting reaction mixtures may be measured after a 10 min incubation at room temperature. The luminescence intensity may be measured by using the Analyst HT from LJL Biosystems.
pKact and % ACTmax values may be calculated by non-linear curve fitting of the compound concentrations and luminescence intensities to a standard inhibition/activation equation.
On the technique in general: Kinase-Glo measures the ATP left after a reaction by luminescence.

As for `CS(=O)(=O)c1ccc2c(=O)n(C(CC3CCCCC3)C(=O)Nc3ncc(Cl)s3)cnc2c1` (stereo not drawn) [Compound 56, N-(5-Chloro-thiazol-2-yl)-3-cyclohexyl-2-(7-methanesulfonyl-4-oxo-4H-quinazolin-3-yl)-propionamide], the EC50 fell in the range of 1000 to 1580 nM. `CNC(=O)c1ccc2c(=O)n(C(CC3CCCCC3)C(=O)Nc3ncc(Cl)s3)cnc2c1` (stereo not drawn) [Compound 175, 3-(1-(5-chlorothiazol-2-ylamino)-3-cyclohexyl-1-oxopropan-2-yl)-N-methyl-4-oxo-3,4-dihydroquinazoline-7-carboxamide]: the EC50 is not above 398 nM.

Turning to `CN(C)CCNC(=O)c1ccc2c(=O)n(C(CC3CCCCC3)C(=O)Nc3ncc(Cl)s3)c(=O)[nH]c2c1` (stereo not drawn) [Compound 177, 3-(1-(5-chlorothiazol-2-ylamino)-3-cyclohexyl-1-oxopropan-2-yl)-N-(2-(dimethylamino)ethyl)-2,4-dioxo-1,2,3,4-tetrahydroquinazoline-7-carboxamide], the EC50 is 501 to 794 nM. Under `O=C(Nc1ncc(Cl)s1)C(CC1CCCCC1)n1c(=O)[nH]c2ccc(F)cc2c1=O` (stereo not drawn) [Compound 38, N-(5-chlorothiazol-2-yl)-3-cyclohexyl-2-(6-fluoro-2,4-dioxo-1,2-dihydroquinazolin-3(4H)-yl)propanamide] stands not below 2000 nM; under `CS(=O)(=O)c1ccc2c(=O)n(C(CC3CCCCC3)C(=O)Nc3ccc(F)cn3)cnc2c1` (stereo not drawn) [Compound 70, 3-Cyclohexyl-N-(5-fluoro-pyridin-2-yl)-2-(7-methanesulfonyl-4-oxo-4H-quinazolin-3-yl)-propionamide], not below 2000 nM; under `O=C(NC1CC1)c1ccc2c(=O)n(C(CC3CCOCC3)C(=O)Nc3ncc(Cl)s3)cnc2c1` (stereo not drawn) [Compound 180, 3-(1-(5-chlorothiazol-2-ylamino)-1-oxo-3-(tetrahydro-2H-pyran-4-yl)propan-2-yl)-N-cyclopropyl-4-oxo-3,4-dihydroquinazoline-7-carboxamide], not below 2000 nM. With `O=C(Nc1nccs1)C(CC1CCCCC1)n1cnc2c(Cl)cccc2c1=O` (stereo not drawn) [Compound 139, 2-(8-chloro-4-oxoquinazolin-3(4H)-yl)-3-cyclohexyl-N-(thiazol-2-yl)propanamide] the figure was not below 2000 nM. Under `O=C(Nc1ccc(F)cn1)C(CC1CCCCC1)n1cnc2ccc(F)cc2c1=O` (stereo not drawn) [Compound 159, 3-cyclohexyl-2-(6-fluoro-4-oxoquinazolin-3(4H)-yl)-N-(5-fluoropyridin-2-yl)propanamide] stands not below 2000 nM; under `O=C(Nc1nc2ccccc2s1)C(CC1CCCCC1)n1cnc2ccc(F)cc2c1=O` (stereo not drawn) [Compound 35, N-(benzo[d]thiazol-2-yl)-3-cyclohexyl-2-(6-fluoro-4-oxoquinazolin-3(4H)-yl)propanamide], 501 to 794 nM; under `O=C(NC1CC1)c1ccc2c(=O)n(C(CC3CCCCC3)C(=O)Nc3ncc(Cl)s3)c(=O)[nH]c2c1` (stereo not drawn) [Compound 172, 3-(1-(5-chlorothiazol-2-ylamino)-3-cyclohexyl-1-oxopropan-2-yl)-N-cyclopropyl-2,4-dioxo-1,2,3,4-tetrahydroquinazoline-7-carboxamide], 501 to 794 nM. Consider `Cc1ccc(NC(=O)C(CC2CCCCC2)n2cnc3ccc(F)cc3c2=O)nc1` (stereo not drawn) [Compound 192, 3-cyclohexyl-2-(6-fluoro-4-oxoquinazolin-3(4H)-yl)-N-(5-methylpyridin-2-yl)propanamide], for which the EC50 is not below 2000 nM. Consider `COC(=O)c1ccc(NC(=O)C(CC2CCCCC2)n2cnc3cc(F)ccc3c2=O)nc1` (stereo not drawn) [Compound 205, methyl 6-(3-cyclohexyl-2-(7-fluoro-4-oxoquinazolin-3(4H)-yl)propanamido)nicotinate], for which the EC50 lay within 1000 to 1580 nM. As for `CN1CCC(CNC(=O)c2ccc3c(=O)n(C(CC4CCCCC4)C(=O)Nc4ncc(Cl)s4)cnc3c2)CC1` (stereo not drawn) [Compound 178, 3-(1-(5-chlorothiazol-2-ylamino)-3-cyclohexyl-1-oxopropan-2-yl)-N-((1-methylpiperidin-4-yl)methyl)-4-oxo-3,4-dihydroquinazoline-7-carboxamide], the EC50 was in the range of 1000 to 1580 nM. With `O=C(NC1CC1)c1ccc2c(=O)n(C(CC3CCCCC3)C(=O)Nc3ccc(F)cn3)cnc2c1` (stereo not drawn) [Compound 118, 3-(3-Cyclohexyl-1-(5-fluoropyridin-2-ylamino)-1-oxopropan-2-yl)-N-cyclopropyl-4-oxo-3,4-dihydroquinazoline-7-carboxamide] the figure was 501 to 794 nM. With `CC(C)S(=O)(=O)c1csc2c(=O)n(C(CC3CCCCC3)C(=O)Nc3ccc(F)cn3)cnc12` (stereo not drawn) [Compound 105, 3-Cyclohexyl-N-(5-fluoropyridin-2-yl)-2-(7-(isopropylsulfonyl)-4-oxothieno[3,2-d]pyrimidin-3(4H)-yl)propanamide] the figure was 1000 to 1580 nM; with `COC(=O)c1ccc(NC(=O)C(CC2CCCCC2)n2cnc3c(C(F)(F)F)cccc3c2=O)nc1` (stereo not drawn) [Compound 209, methyl 6-(3-cyclohexyl-2-(4-oxo-8-(trifluoromethyl)quinazolin-3(4H)-yl)propanamido)nicotinate], 1000 to 1580 nM. For `O=C(Nc1ccc(Cl)cn1)C(CC1CCCCC1)n1cnc2cc(S(=O)(=O)C3CC3)ccc2c1=O` (stereo not drawn) [Compound 75, N-(5-Chloro-pyridin-2-yl)-3-cyclohexyl-2-(7-cyclopropanesulfonyl-4-oxo-4H-quinazolin-3-yl)-propionamide], the EC50 was 501 to 794 nM. Under `O=C(Nc1ncc(Cl)s1)C(CC1CCCCC1)n1cnc2c(C(F)(F)F)cccc2c1=O` (stereo not drawn) [Compound 142, N-(5-chlorothiazol-2-yl)-3-cyclohexyl-2-(4-oxo-8-(trifluoromethyl)-quinazolin-3(4H)-yl)propanamide] stands not below 2000 nM. Under `COC(=O)c1ccc(NC(=O)C(CC2CCCCC2)n2cnc3cc(S(=O)(=O)C4CCCC4)ccc3c2=O)nc1` (stereo not drawn) [Compound 83, 6-[3-Cyclohexyl-2-(7-cyclopentanesulfonyl-4-oxo-4H-quinazolin-3-yl)-propionylamino]-nicotinic acid methyl ester] stands not above 398 nM; under `O=C(Nc1ncc(Cl)s1)C(CC1CCCCC1)n1cnc2ccc(Cl)cc2c1=O` (stereo not drawn) [Compound 47, 2-(6-Chloro-4-oxo-4H-quinazolin-3-yl)-N-(5-chloro-thiazol-2-yl)-3-cyclohexyl-propionamide], 1000 to 1580 nM; under `CS(=O)(=O)c1csc2c(=O)n(C(CC3CCCCC3)C(=O)Nc3ccc(Cl)cn3)cnc12` (stereo not drawn) [Compound 184, N-(5-chloropyridin-2-yl)-3-cyclohexyl-2-(7-(methylsulfonyl)-4-oxothieno[3,2-d]pyrimidin-3(4H)-yl)propanamide], 1000 to 1580 nM. Under `O=C(Nc1ccc2ccccc2n1)C(CC1CCCCC1)n1cnc2ccc(F)cc2c1=O` (stereo not drawn) [Compound 195, 3-cyclohexyl-2-(6-fluoro-4-oxoquinazolin-3(4H)-yl)-N-(quinolin-2-yl)propanamide] stands 501 to 794 nM. Take `COc1ccc2ncn(C(CC3CCCCC3)C(=O)Nc3nccs3)c(=O)c2c1` (stereo not drawn) [Compound 131, 3-cyclohexyl-2-(6-methoxy-4-oxoquinazolin-3(4H)-yl)-N-(thiazol-2-yl)propanamide]: the EC50 was not below 2000 nM.

Regarding `COC(=O)c1ccc(NC(=O)[C@H](CC2CCCCC2)n2cnc3c(C(F)(F)F)cccc3c2=O)nc1` [Compound 210, (S)-methyl 6-(3-cyclohexyl-2-(4-oxo-8-(trifluoromethyl)quinazolin-3(4H)-yl)propanamido)nicotinate], the EC50 was in the range of 1000 to 1580 nM.
